Results: patent US20230017785A1, “COMPANION DIAGNOSTICS FOR COMPLEMENT INHIBITORS” (THE JOHNS HOPKINS UNIVERSITY, priority 2019, published 2023)
“Also recorded” adds a separate entry of the source.

Key:
[1] = tested on: PIGA null TF-1 cells; settings: previously demonstrated (ref. 46); cited from earlier work
[2] = tested on: PIGA null TF-1 cells; test: Modified Ham (mHam) assay, complement-dependent cell killing; format: cell-based, human; settings: anti-C5 mAb 10 μg, ACH-4471 0.33 μM; for Inhibition of cell killing in the mHam induced by APS sera: APS patient sera; for Inhibition of mHam cell killing induced by CAPS sera: CAPS patient sera
[3] = tested on: C5b-9 deposition on PIGA null TF-1 cells; test: Flow cytometry for C5b-9 deposition; format: cell-based, human; settings: for Inhibition of C5b-9 deposition induced by APS patient sera: APS patient sera on PIGA null TF-1 cells; for Inhibition of C5b-9 deposition induced by CAPS sera: CAPS patient sera (e.g. CAPS5); for Inhibition of C5b-9 deposition induced by patient-derived IgG anti-β2GPI antibody: anti-β2GPI from thrombotic APS patient APS21 added to normal human serum
Method: Patient derived anti-β2GPI antibodies. Anti-β2GPI antibodies from two patients were affinity purified using a column of Affigel HZ to which purified human β2GPI was coupled (Bio-Rad Laboratories, Hercules, Calif.), as previously described.^43 IgG purity was assessed by reduced SDS-PAGE. Complement activation (C5b-9 deposition and complement dependent cell killing in mHam) induced by patient-derived anti-β2GPI antibodies was tested by adding patient-derived anti-β2GPI antibodies to normal human serum (Cat. NHS, Complement Technology, Inc.).
Flow cytometry for C5b-9 deposition. Flow cytometry was performed to evaluate cell surface deposition of C5b-9 deposition on PIGA null TF1 cells. Cells were seeded in V-bottom 96-well plates (1.2×10^5 cells/well) either in GVB^0.MgEGTA (pH 6.4) buffer for alternative pathway activation or GVB++ (pH 7.4) buffer for classical pathway activation followed by addition of APS patient serum (or patient-derived aPL added to normal human serum). The reaction was incubated for 15 min at 37° C., and stopped by adding FACS buffer/EDTA. Cell pellets were separated by centrifugation at 1900 rpm for 3 minutes at room temperature and then stained with Alexa 488 conjugated anti-C3c antibody (Cat. 4212, Abcam, dilution at 1:100) and […] monoclonal primary antibody (Cat. 66768, Abcam, dilution at 1:100), followed by Alexa 647 conjugated secondary antibody. C5b-9 deposition was measured by a BD FACSCalibur. Ten thousand events were recorded per sample and analyzed using FlowJo software version 10.5.3 (FlowJo Inc). Normal human serum was used as a negative control for flow cytometry assays. We also evaluated the effect of adding anti-C5 mAb and ACH-4471 on C5b-9 deposition.

SMILES: CC(=O)c1nn(CC(=O)N2C[C@H](F)C[C@H]2C(=O)Nc2cccc(Br)n2)c2ccc(-c3cnc(C)nc3)cc12 [ACH-4471]
- Blocking complement dependent killing in the mHam with aHUS serum [1]: highly effective in blocking
- Inhibition of cell killing in the mHam induced by APS sera [2]: less so
- Inhibition of cell killing in the mHam induced by APS sera ([2]; listed as ACH4471): did not prevent cell killing
- Inhibition of mHam cell killing induced by CAPS sera [2]: partially blocked; also recorded: partially inhibited
- Inhibition of mHam cell killing induced by CAPS sera ([2]; listed as factor D inhibitor): attenuated
- Inhibition of C5b-9 deposition induced by APS patient sera [3]: less so
- Inhibition of C5b-9 deposition induced by APS patient sera ([3]; listed as ACH4471): did not appreciably inhibit; also recorded: did not prevent
- Inhibition of C5b-9 deposition induced by CAPS sera [3]: partially blocked; also recorded: partially inhibited
- Inhibition of C5b-9 deposition induced by CAPS sera ([3]; listed as ACH4471): partially
- Inhibition of C5b-9 deposition induced by aHUS patient sera ([3]; aHUS patient PS-18 sera): completely inhibited
- Inhibition of C5b-9 deposition induced by patient-derived IgG anti-β2GPI antibody [3]: partially
- Inhibition of C5b-9 deposition induced by patient-derived IgG anti-β2GPI antibody ([3]; listed as factor D inhibitor): minimally inhibited
